From US11046699B2, “Pyrazolo-pyrimidin-amino-cycloalkyl compounds and their therapeutic uses” (RAPT THERAPEUTICS, INC., priority 2018, dated 2021) come the findings set out here.

Where only a bound is given, the exact number is not on record here.

In one test the target is GCN2 (Homo sapiens, UniProt Q9P2K8). Description: GCN2 enzymatic endpoint assay: phosphorylation of GFP-eIF2α measured by TR-FRET (Lanthascreen). Type of test: biochemical. To be noted: GCN2 biochemical IC50; 4 nM GCN2, 2 μM ATP, 80 nM GFP-eIF2α, 90 min RT; read-out: GCN2 activity. An outline of the steps: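 Kinase activity is measured as phosphorylation of GFP-labelled eIF2α (80 nM) with ATP at 2 μM. Incubation runs 90 minutes at room temperature before EDTA quench and terbium-antibody detection.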
Chain of GCN2 (Q9P2K8 whole entry): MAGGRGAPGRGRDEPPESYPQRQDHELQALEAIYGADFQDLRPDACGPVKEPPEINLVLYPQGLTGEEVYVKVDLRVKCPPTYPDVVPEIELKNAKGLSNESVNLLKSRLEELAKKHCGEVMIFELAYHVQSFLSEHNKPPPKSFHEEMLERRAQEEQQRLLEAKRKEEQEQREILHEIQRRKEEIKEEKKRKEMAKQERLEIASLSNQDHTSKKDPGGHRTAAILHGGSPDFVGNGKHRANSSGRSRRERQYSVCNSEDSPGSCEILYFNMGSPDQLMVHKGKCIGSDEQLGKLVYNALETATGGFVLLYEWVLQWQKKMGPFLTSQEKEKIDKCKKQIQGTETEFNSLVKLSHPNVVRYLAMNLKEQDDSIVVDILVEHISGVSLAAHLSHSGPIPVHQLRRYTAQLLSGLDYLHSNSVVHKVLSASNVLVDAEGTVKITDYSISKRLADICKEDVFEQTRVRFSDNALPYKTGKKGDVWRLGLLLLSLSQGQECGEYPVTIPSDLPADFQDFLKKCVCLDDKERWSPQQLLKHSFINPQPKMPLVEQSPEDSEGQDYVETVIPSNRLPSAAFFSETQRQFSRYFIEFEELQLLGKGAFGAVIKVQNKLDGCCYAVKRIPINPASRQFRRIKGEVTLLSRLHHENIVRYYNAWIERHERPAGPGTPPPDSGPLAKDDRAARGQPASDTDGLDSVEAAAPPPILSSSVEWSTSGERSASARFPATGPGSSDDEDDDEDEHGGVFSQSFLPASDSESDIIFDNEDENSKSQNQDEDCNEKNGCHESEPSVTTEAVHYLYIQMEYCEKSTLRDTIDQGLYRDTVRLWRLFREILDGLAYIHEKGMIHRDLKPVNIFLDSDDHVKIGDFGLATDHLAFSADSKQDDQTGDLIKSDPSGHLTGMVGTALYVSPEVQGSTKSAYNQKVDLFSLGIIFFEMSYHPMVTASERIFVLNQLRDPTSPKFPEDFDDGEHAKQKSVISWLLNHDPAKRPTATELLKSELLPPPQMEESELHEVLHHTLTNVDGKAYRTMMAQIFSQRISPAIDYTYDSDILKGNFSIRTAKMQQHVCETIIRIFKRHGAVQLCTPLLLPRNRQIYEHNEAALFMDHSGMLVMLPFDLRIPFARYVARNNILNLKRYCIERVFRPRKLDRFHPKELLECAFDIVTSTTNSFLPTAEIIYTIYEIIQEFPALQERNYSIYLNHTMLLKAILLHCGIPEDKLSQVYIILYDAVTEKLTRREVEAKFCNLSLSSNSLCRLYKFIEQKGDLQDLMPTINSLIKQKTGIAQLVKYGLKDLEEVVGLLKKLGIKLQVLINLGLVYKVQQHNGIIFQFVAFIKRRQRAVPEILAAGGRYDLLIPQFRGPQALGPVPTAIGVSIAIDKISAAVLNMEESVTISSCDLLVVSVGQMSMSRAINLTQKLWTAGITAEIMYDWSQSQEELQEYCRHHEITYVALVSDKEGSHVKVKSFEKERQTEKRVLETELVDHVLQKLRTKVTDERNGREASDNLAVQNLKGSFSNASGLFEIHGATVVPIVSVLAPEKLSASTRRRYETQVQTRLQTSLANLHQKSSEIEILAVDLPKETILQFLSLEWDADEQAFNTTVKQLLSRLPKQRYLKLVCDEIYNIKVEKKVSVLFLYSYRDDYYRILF
(TR-FRET usually uses a lanthanide donor and a delayed reading to cut background.)
Consider `CNC(=O)C[C@H]1C[C@H](Nc2ncc3c(Br)nn(-c4cc(Cl)cc([C@H](C)N)c4)c3n2)C1` [Example 71, 2-((1S,3r)-3-((1-(3-((S)-1-aminoethyl)-5-chlorophenyl)-3-bromo-1H-pyrazolo[3,4-d]pyrimidin-6-yl)amino)cyclobutyl)-N-methylacetamide], for which the IC50 is 25 to 200 nM.
Turning to `Cc1nnc(-c2ccc(-n3nc(Br)c4cnc(N[C@@H]5CC[C@@](C)(O)C5)nc43)cc2)s1` [Example 74, (1R,3R)-3-((3-bromo-1-(4-(5-methyl-1,3,4-thiadiazol-2-yl)phenyl)-1H-pyrazolo[3,4-d]pyrimidin-6-yl)amino)-1-methylcyclopentan-1-ol], the IC50 lay within 25 to 200 nM.

The same test, now with this note: tested as described in Example 77; compound and/or hydrochloride, dihydrochloride or trifluoroacetic acid salt; read-out: IC 50 Activity.
Regarding `COCCNC(=O)[C@@H]1CC[C@@H](Nc2ncc3c(Br)nn(-c4ccc(-c5ccn[nH]5)cc4)c3n2)C1` [(1R,3R)-3-((1-(4-(1H-pyrazol-5-yl)phenyl)-3-bromo-1H-pyrazolo[3,4-d]pyrimidin-6-yl)amino)-N-(2-methoxyethyl)cyclopentane-1-carboxamide], the IC50 is 200 to 500 nM.
With `CNC(=O)[C@]1(C)CC[C@@H](Nc2ncc3c(Br)nn(-c4ccc(-c5nnc(C)o5)nc4)c3n2)C1` [(1R,3R)-3-[[3-bromo-1-[6-(5-methyl-1,3,4-oxadiazol-2-yl)-3-pyridyl]pyrazolo [3,4-d]pyrimidin-6-yl]amino]-N,1-dimethyl-cyclopentanecarboxamide], the IC50 lay within 25 to 200 nM.
As for `Cc1nnc(-c2ccc(-n3nc(Br)c4cnc(N[C@@H]5CC[C@@](C)(C(=O)N6CCCC6)C5)nc43)cc2)s1` [[(1R,3R)-3-[[3-bromo-1-[4-(5-methyl-1,3,4-thiadiazol-2-yl)phenyl]pyrazolo[3,4-d]pyrimidin-6-yl]amino]-1-methyl-cyclopentyl]-pyrrolidin-1-yl-methanone], the IC50 fell in the range of 25 to 200 nM.
`CNC(=O)[C@@H]1CC[C@@H](Nc2ncc3c(Br)nn(-c4ccc(-c5nnc(C)o5)cc4)c3n2)C1` [(1R,3R)-3-[[3-bromo-1-[4-(5-methyl-1,3,4-oxadiazol-2-yl)phenyl]pyrazolo[3,4-d]pyrimidin-6-yl]amino]-N-methyl-cyclopentanecarboxamide]: the IC50 lay in the range of 25 to 200 nM.
On the same count and under the same terms, in the case of `O=C(NCCn1ccnc1)[C@@H]1CC[C@@H](Nc2ncc3c(Br)nn(-c4ccc5ncccc5c4)c3n2)C1` [(1R,3R)-N-(2-(1H-imidazol-1-yl)ethyl)-3-((3-bromo-1-(quinolin-6-yl)-1H-pyrazolo[3,4-d]pyrimidin-6-yl)amino)cyclopentane-1-carboxamide] it was 25 to 200 nM.
Turning to `C[C@@H]1CN(C(=O)[C@@H]2CC[C@@H](Nc3ncc4c(Br)nn(-c5ccc6ncccc6c5)c4n3)C2)C[C@H](C)N1` [((1R,3R)-3-((3-bromo-1-(quinolin-6-yl)-1H-pyrazolo[3,4-d]pyrimidin-6-yl)amino)cyclo-pentyl)((3S,5R)-3,5-dimethylpiperazin-1-yl) methanone], the IC50 fell in the range of 25 to 200 nM.
For `CNC(=O)[C@]1(C)CC[C@@H](Nc2ncc3c(Br)nn(-c4cccc(CCS(C)(=O)=O)c4)c3n2)C1` [(1R,3R)-3-[[3-bromo-1-[3-(2-methyl-sulfonylethyl)phenyl]pyrazolo[3,4-d]pyrimidin-6-yl]amino]-N,1-dimethyl-cyclopentanecarboxamide], the IC50 was in the range of 25 to 200 nM.
On the same count and under the same terms, then `CNC(=O)[C@]1(C)CC[C@@H](Nc2ncc3c(Br)nn(-c4cc(Cl)cc(C(=O)N(C)C5CNC5)c4)c3n2)C1` [N-(azetidin-3-yl)-3-[3-bromo-6-[[(1R,3R)-3-methyl-3-(methylcarbamoyl)cyclopentyl]amino]pyrazolo[3,4-d]pyrimidin-1-yl]-5-chloro-N-methyl-benzamide], with 25 to 200 nM; and `NCCc1cc(-n2nc(Br)c3cnc(NC4CC(O)C4)nc32)cc2cccnc12` (stereo not drawn) [3-[[1-[8-(2-aminoethyl)-6-quinolyl]-3-bromo-pyrazolo[3,4-d]pyrimidin-6-yl]amino] cyclobutanol], with 25 to 200 nM.
On the same count and under the same terms, then `CNC(=O)[C@]1(C)CC[C@@H](Nc2ncc3c(Br)nn(-c4ccc(-c5nnc(C(C)O)o5)cc4)c3n2)C1` (stereo partly drawn) [(1R,3R)-3-[[3-bromo-1-[4-[5-(1-hydroxy-ethyl)-1,3,4-oxadiazol-2-yl]phenyl]pyrazolo [3,4-d]pyrimidin-6-yl]amino]-N,1-dimethyl-cyclopentanecarboxamide], with 25 to 200 nM.
In the case of `CNC(=O)[C@@]1(CC(F)F)CC[C@@H](Nc2ncc3c(Br)nn(-c4cc(CCO)c5ncccc5c4)c3n2)C1` [(1S,3R)-3-[[3-bromo-1-[8-(2-hydroxyethyl)-6-quinolyl]pyrazolo[3,4-d]pyrimidin-6-yl]amino]-1-(2,2-difluoroethyl)-N-methyl-cyclopentanecarboxamide], the IC50 fell in the range of 25 to 200 nM.
Still for that read-out and setting: in the case of `CNC(=O)[C@]1(C)CC[C@@H](Nc2ncc3c(Br)nn(-c4cc(Cl)cc(NC(=O)C5CNC5)c4)c3n2)C1` [N-[3-[3-bromo-6-[[(1R,3R)-3-methyl-3-(methylcarbamoyl)cyclopentyl]amino]pyrazolo[3,4-d]pyrimidin-1-yl]-5-chloro-phenyl]azetidine-3-carboxamide] it was 25 to 200 nM.
Still for that read-out and setting: then `CNC(=O)[C@]1(CC(F)F)CC[C@@H](Nc2ncc3c(Br)nn(-c4cc(F)c5ncccc5c4)c3n2)C1` [(1R,3R)-3-[[3-bromo-1-(8-fluoro-6-quinolyl)pyrazolo[3,4-d]pyrimidin-6-yl]amino]-1-(2,2-difluoroethyl)-N-methyl-cyclopentane-carboxamide], with less than 25 nM; and `CNC(=O)[C@]1(C)CC[C@@H](Nc2ncc3c(Br)nn(-c4ccc(-c5nnc(COC)o5)cc4)c3n2)C1` [(1R,3R)-3-[[3-bromo-1-[4-[5-(methoxy-methyl)-1,3,4-oxadiazol-2-yl]phenyl]pyrazolo [3,4-d]pyrimidin-6-yl]amino]-N,1-dimethyl-cyclopentanecarboxamide], with 25 to 200 nM; and `C[C@@]1(C(=O)NCCO)CC[C@@H](Nc2ncc3c(Br)nn(-c4cc(F)c5ncccc5c4)c3n2)C1` [(1R,3R)-3-[[3-bromo-1-(8-fluoro-6-quinolyl)pyrazolo[3,4-d]pyrimidin-6-yl]amino]-N-(2-hydroxyethyl)-1-methyl-cyclopentane-carboxamide], with less than 25 nM.
Same read-out and setting: in the case of `N#Cc1cc(-n2nc(Br)c3cnc(N[C@@H]4CC[C@@H](C(=O)N=S5(=O)CCNCC5)C4)nc32)cc2cccnc12` it was 25 to 200 nM; in that of `CNC(=O)[C@]1(C)CC[C@@H](Nc2ncc3c(Br)nn(-c4ccc5c(c4)CCN(S(C)(=O)=O)C5)c3n2)C1` [(1R,3R)-3-[[3-bromo-1-(2-methylsulfonyl-3,4-dihydro-1H-isoquinolin-6-yl)pyrazolo [3,4-d]pyrimidin-6-yl]amino]-N,1-dimethyl-cyclopentanecarboxamide], 25 to 200 nM; in that of `CN1CN(C(=O)[C@@H]2CC[C@@H](Nc3ncc4c(Br)nn(-c5cc(C#N)c6ncccc6c5)c4n3)C2)CC1=O` [6-(3-bromo-6-(((1R,3R)-3-(3-methyl-4-oxo-imidazolidine-1-carbonyl)cyclopentyl)amino)-1H-pyrazolo[3,4-d]pyrimidin-1-yl) quinoline-8-carbonitrile], 25 to 200 nM.
Regarding `COCCNC(=O)[C@@H]1CC[C@@H](Nc2ncc3c(Br)nn(-c4ccc5nc(C)ccc5c4)c3n2)C1` [(1R,3R)-3-((3-bromo-1-(2-methylquinolin-6-yl)-1H-pyrazolo[3,4-d]pyrimidin-6-yl)amino)-N-(2-methoxyethyl)cyclopentane-1-carboxamide], the IC50 lay within 200 to 500 nM.
